# Measurements from patent US20070142317A1, “Topical composition for treatment of skin disorders” (QLT USA, Inc., priority 2003, published 2007).
# Values joined by “and” are separate entries in the source; they are usually repeats but may differ in a detail not shown here. Equal values may be shown once. Read-outs that look alike come from different tables or passages of the source.
# What was measured:
# [1] = Calculated concentration in the skin assuming 7% penetration
# U-937 cells [2] = test: Cytokine secretion by ELISA (Example 31); type: cell-based; details: drug 1 μM; for Cytokine Secretion IL-6 pg/ml Mean of 3 Replicates: LPS-activated cells
# Procedure: In a search for a topical agent that can locally deplete levels of T-cells in the skin, apoptotic compounds were evaluated for their mechanisms of action. The ability that […] induce apoptosis by the same mechanisms was examined by cytokine secretion. […] Caspase-3 and cytokine (IL-2, IL-6, TNF, and IFN-γ) levels were determined and compared to controls at 23 and 46 hours. FdA was incorporated to evaluate the effect of the halogen group and Ara-C for its overlapping mechanisms of action. […] At the end of the treatment period, the cells were harvested and Caspase-3 induction was determined using a flow-cytometry-based method to quantify the percentage of cells that induced Caspase-3. The level of apoptosis is expressed as “% FITC shift”. Cytokine secretion (IL-2, IL-6, TNF, and IFN-γ) was measured at the same time by ELISA and is expressed in pg/mL. […]
# [3] = system: hairy cell leukemia (HCL); details: cited from earlier work
# dGK = dGK (Homo sapiens, UniProt Q16854); details: read-out: Km for dGK; cited from earlier work
# Sequence of dGK (Q16854 40-277, species assumed): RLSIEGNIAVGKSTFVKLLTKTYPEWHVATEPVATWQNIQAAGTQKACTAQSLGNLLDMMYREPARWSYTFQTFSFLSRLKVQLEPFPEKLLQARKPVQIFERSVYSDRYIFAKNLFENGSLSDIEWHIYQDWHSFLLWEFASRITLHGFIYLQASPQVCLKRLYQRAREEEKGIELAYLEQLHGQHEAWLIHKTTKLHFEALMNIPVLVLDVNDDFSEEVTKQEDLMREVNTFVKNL
# [4] = for times safer than the oncology dose: 40 grams each day, 7% penetration
# From the text: (§1) Systemic absorption is a concern, because of the potential for serious adverse events, such as lymphopenia and renal toxicity. At oncology doses, these adverse reactions are usually minimized, but the therapeutic index is narrow. Another factor that plays a role in the safety of the formulation is the amount of product administered each day. Approximately 4 grams, 12 grams, and 40 grams of a topical formulation are estimated to cover 10%, 30%, and 100% of the body surface area.
# as §1
# as §1, with “Calculations of safety margins have been performed, based upon this assumption and the known toxicity profile of F-Ara-A when administered IV for oncology indications. Systemic” for “Systemic”
# as §1
# Jurkat cells = test: Cytokine secretion by ELISA (Example 31); type: cell-based; details: drug 1 μM; for Cytokine Secretion IL-2 pg/ml Mean of 3 Replicates: PHA-activated cells
# Procedure: In a search for a topical agent that can locally deplete levels of T-cells in the skin, apoptotic compounds were evaluated for their mechanisms of action. The ability that […] induce apoptosis by the same mechanisms was examined by cytokine secretion. […] At the end of the treatment period, the cells were harvested and Caspase-3 induction was determined using a flow-cytometry-based method to quantify the percentage of cells that induced Caspase-3. The level of apoptosis is expressed as “% FITC shift”. Cytokine secretion (IL-2, IL-6, TNF, and IFN-γ) was measured at the same time by ELISA and is expressed in pg/mL.
# U-937 cells [5] = details: Niiitsu et al 2000; cited from earlier work
# [6] = system: chronic lymphocytic leukemia (CLL); details: 25 mg/m^2 every day for 5 days; cited from earlier work
# monocytes = details: read-out: concentration that causes 50% inhibition of monocytes; cited from earlier work
# [7] = aqueous solution, cited from earlier work
# lymphocytes = details: same concentration of dCF, absence of dAdo, after 4 days of exposure; cited from earlier work
# [8] = intravenous; cited from earlier work
smiles,measurement,setting,value
"Nc1nc(Cl)nc2c1ncn2[C@H]1C[C@H](O)[C@@H](CO)O1 [CdA, 2-chloro-2′-deoxyadenosine]",concentration achieved in the skin assuming 7% penetration,[1]; topical 0.00001% (0.0001 mg/g),approximately 25 nM
same,Concentration in the skin assuming 7% penetration,[1]; topical concentration 0.00001%,20 nM
same,Concentration in the skin assuming 7% penetration,[1]; topical concentration 0.00005%,120 nM
same,Concentration in the skin assuming 7% penetration,[1]; topical concentration 0.0001%,250 nM
same,Concentration in the skin assuming 7% penetration,[1]; topical concentration 0.001%,2450 nM
same,Concentration in the skin assuming 7% penetration,[1]; topical concentration 0.01%,24500 nM
same,Concentration in the skin assuming 7% penetration,[1]; topical concentration 0.1%,245010 nM
same,Cytokine Secretion IL-6 pg/ml Mean of 3 Replicates,U-937 cells [2]; 23 hr,7 pg/mL
same,effect on suppressing the production of IL-6,U-937 cells [2]; 46 hours,little effect
same,Cytokine Secretion IL-6 pg/ml Mean of 3 Replicates,U-937 cells [2]; 46 hr,8 pg/mL and 7 pg/mL
same,time to responses and complete remissions,[3]; 3.6 mg/m^2 every day for 7 days,≤ 1 week
same,Km,dGK,80 µM
same,safety factor,"[4]; 0.00005%, 30% of body surface area (10.8 grams/day), 7% systemic absorption","17,142"
same,times safer than the oncology dose,[4]; topical 0.00001%,23000
same,safety margin (times safer than the oncology dose),"[4]; topical 0.1% (1.0 mg/g), 10% BSA (4 grams per day), 7% systemic absorption",23
same,systemic exposure per day,"[4]; topical 0.1% (1.0 mg/g), 10% BSA (4 grams), 7% systemic absorption",0.28 mg
same,safety margin (times safer than the oncology dose),"[4]; topical 0.1% (1.0 mg/g), 30% BSA (12 grams per day), 7% systemic absorption",7.7
same,systemic exposure per day,"[4]; topical 0.1% (1.0 mg/g), 30% BSA (12 grams), 7% systemic absorption",0.84 mg
same,safety margin (times safer than the oncology dose),"[4]; topical 0.1% (1.0 mg/g), 100% BSA (40 grams per day), 7% systemic absorption",2.3
same,systemic exposure per day,"[4]; topical 0.1% (1.0 mg/g), 100% BSA (40 grams), 7% systemic absorption",2.8 mg
same,Cytokine Secretion IL-2 pg/ml Mean of 3 Replicates,Jurkat cells; 23 hr,51 pg/mL
same,Cytokine Secretion IL-2 pg/ml Mean of 3 Replicates,Jurkat cells; 46 hr,105 pg/mL
same,IL-2 concentration,"Jurkat cells; Jurkat cells activated by PHA, 46 hours",105 pg/mL
same,concentration toxic to U-937 cells on its own,U-937 cells [5],0.1 µM
"Nc1nc(F)nc2c1ncn2[C@@H]1O[C@H](CO)C(O)C1O (stereo partly drawn) [F-Ara-A, 2-fluoroadenine-9β-D-Arabinofuranoside]",concentration achieved in the skin assuming 7% penetration,[1]; topical 0.0002% (0.002 mg/g),approximately 0.5 μM
same,times safer than the oncology dose,[4]; topical 0.0002%,8036
same,safety margin (times safer than the oncology dose),"[4]; topical 1.0% (10 mg/g), 10% BSA (4 grams per day), 7% systemic absorption",16
same,systemic exposure per day,"[4]; topical 1.0% (10 mg/g), 10% BSA (4 grams), 7% systemic absorption",2.8 mg
same,safety margin (times safer than the oncology dose),"[4]; topical 1.0% (10 mg/g), 30% BSA (12 grams per day), 7% systemic absorption",5.4
same,systemic exposure per day,"[4]; topical 1.0% (10 mg/g), 30% BSA (12 grams), 7% systemic absorption",8.4 mg
same,safety margin (times safer than the oncology dose),"[4]; topical 1.0% (10 mg/g), 100% BSA (40 grams per day), 7% systemic absorption",1.6
same,systemic exposure per day,"[4]; topical 1.0% (10 mg/g), 100% BSA (40 grams), 7% systemic absorption",28 mg
same,"time to complete remissions, on average",[6],3 months
same,IC50,monocytes,500 nM
"OC[C@H]1O[C@@H](n2cnc3c2NC=NC[C@H]3O)C[C@@H]1O [dCF, (R)-3-(2-Deoxy-β-D-erythro-pentofuranosyl)-3,6,7,8-tetrahydroimidazo[4,5-d][1,3]diazepin-8-ol]",Concentration in the skin assuming 7% penetration,[1]; topical concentration 0.00001%,30 nM
same,Concentration in the skin assuming 7% penetration,[1]; topical concentration 0.00005%,130 nM
same,Concentration in the skin assuming 7% penetration,[1]; topical concentration 0.0001%,260 nM
same,Concentration in the skin assuming 7% penetration,[1]; topical concentration 0.001%,2610 nM
same,Concentration in the skin assuming 7% penetration,[1]; topical concentration 0.01%,26090 nM
same,Concentration in the skin assuming 7% penetration,[1]; topical concentration 0.1%,260930 nM
same,"time to complete remissions, on average",[3]; 4 mg/m^2 every 14 days,6 months
same,t50,"[7]; pH 1, 25° C.",5.6 min
same,t50,"[7]; pH 5.0, 25° C.",about 3.5 days
same,t50,"[7]; pH 7.5, 25° C.",approximately 70 days
same,t50,"[7]; pH 12.6, 25° C.",approximately 45 days
same,safety margin (times safer than the oncology dose),[4],1.8
same,growth inhibition,lymphocytes,0-10%
same,drug recovered in the urine,[8],Approximately 96%
